Reference: paper PMC6013775, “Inhibition of the key enzyme of sialic acid biosynthesis by C6-Se modified N-acetylmannosamine analogs” (Chemical Science, 2016)
Values joined by “and” are separate entries in the source; they are usually repeats but may differ in a detail not shown here. Equal values may be shown once.

Columns and labels:
[1] = target: T1, human MNK (N-acetylmannosamine kinase) (Homo sapiens, UniProt Q9Y223); assay: MNK activity, coupled optical assay based on NADH consumption; assay type: biochemical
T1 construct: His; made in house; host or cells: Escherichia coli BL21-CodonPlus (DE3)-RIL
T1 sequence (Q9Y223 406-722 limits assumed): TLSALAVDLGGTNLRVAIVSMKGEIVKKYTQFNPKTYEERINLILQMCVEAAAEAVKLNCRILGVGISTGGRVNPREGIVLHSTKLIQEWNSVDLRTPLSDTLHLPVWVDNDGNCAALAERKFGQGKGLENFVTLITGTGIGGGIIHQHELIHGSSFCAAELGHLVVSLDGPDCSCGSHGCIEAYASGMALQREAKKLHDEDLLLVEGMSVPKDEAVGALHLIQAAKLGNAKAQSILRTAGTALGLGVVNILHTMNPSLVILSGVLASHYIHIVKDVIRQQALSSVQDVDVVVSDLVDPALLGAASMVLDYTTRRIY
Method: (§1) N-Acetylmannosamine kinase and N-acetylglucosamine kinase expression and […]
(§2) Human N-acetylmannosamine kinase (MNK) was expressed and purified using an established method.1 Therefore, his-tagged MNK was expressed in BL21-CodonPlus (DE3)-RIL Escherichia coli (Stragene). Purification was performed by Ni-NTA affinity chromatography, and subsequently size exclusion chromatography on a SuperdexTM HighLoad 16/600 column (GE Healthcare). […]
To evaluate their purity, protein samples were mixed with SDS-PAGE sample buffer, denatured at 90 °C for 1 min and separated by a 10% SDS-PAGE gel. Proteins were visualized with Coomassie G-250 staining solution (Biorad), and PageRuler Prestained Plus (Biorad) was used as a marker (Figure S1 ).
Figure S1. SDS-PAGE of His-tagged MNK (His-MNK) and GST-tagged GNK
(GST-GNK) after affinity chromatography and size exclusion chromatography.
Apparent molecular masses given by the marker are indicated on the left side.
1 J. Martinez, L. D. Nguyen, S. Hinderlich, R. Zimmer, E. Tauberger, W. Reutter, W. Saenger, H. Fan
2 W.A. Weihofen, M. Berger, H. Chen, W. Saenger, and S. Hinderlich, J. Mol. Biol., 2006, 364, 388.
(1 picture or pasted object on this page, not shown here)
(§3) Enzyme activity and inhibition studies using N-acetylmannosamine kinase, N-acetylglucosamine kinase and yeast hexokinase
(§4) Evaluation MNK activity in presence of the compounds 11, 12, 14b, 16b and 18b The effects of compounds 11, 12, 14b, 16b, or 18b on MNK enzyme activity were evaluated using a coupled optical assay. 55 µl reaction mixture contained the following buffers and reagents: 39.5 µl buffer A (65 mM MgCl2, 200 mM Tris-HCl, pH 8.1), 5 µl ATP (50 mM), 3.5 µl NADH (30 mM), 2 µl phosphoenolpyruvate (100 mM), 2 U pyruvate-kinase, 2 U lactate-dehydrogenase, 5 µl ManNAc of varying concentrations. Subsequently, 10 µl of the compounds 11, 12, 14b, 16b and 18b were added in varying concentrations. The reaction was initiated by adding 0.6 µg MNK in 35 µL buffer B (10 mM Tris-HCl, 150 mM NaCl, pH 8.0). Samples were incubated at 37°C. Spectrophotometric measurements of NADH concentration was performed at 340 nm. Results obtained were normalized to blanks, consisting of 55 µl reaction mixture, 10 µl H 2O and 35 µl buffer B without MNK.
GNK and hexokinase inhibition assays using compound 14b
To evaluate the specificity of the inhibitor 14b towards other sugar kinases, we performed further inhibition experiments using human GNK and hexokinase (HK) from yeast (Sigma, H-5000). 39.5 µl Buffer A (see above), 5 µl ATP (50 mM), 3.5 µl NADH (30 mM), 2 µl phosphoenolpyruvate (100 mM), 2 U pyruvate-kinase, 2 U lactate-dehydrogenase, 5 µl GlcNAc (7.5 mM, for GNK experiments), or 5 µl ManNAc (7.5 mM, for GNK experiments), or glucose (5 mM, for HK experiments), and 10 µl 14b (varying concentrations) were mixed with either 1 µg GNK or 0.2 µg HK in 35 µL buffer B. The decrease of NADH was measured in a spectrophotometer […]
5 mM for HK activity, respectively (Figure S2).
Figure S2. Inhibition of GNK and HK activity by 14b. Values are means ± SEM of […]

[2] = Stability of the diselenide towards thiol reducing agents, 77Se NMR; assay type: physicochemical
Method: At this stage, we also wanted to evaluate the stability of the diselenide 14b in presence of thiol-containing reducing agents like dithiothreitol (DTT) or glutathione (GSH) to address the application of our compounds in living cells. Therefore, the possible reduction of the diselenide bond was monitored by ^77Se NMR using a solution of 60 mM concentration of 14b in an aqueous saturated DTT solution at room temperature. Immediately after the addition of 14b to the DTT solution, a characteristic signal for the selenol compound at –48.1 ppm was observed and a major peak at 294 ppm related to the diselenide. Concretely, the integration of diselenide/selenol peaks gave a 90 : 10 ratio (details in ESI ^†).

[3] = target: T2, human GlcNAc kinase (GNK) (Homo sapiens, UniProt Q9UJ70); assay: GNK inhibition, coupled optical assay; assay type: biochemical
T2 construct: GST; made in house; host or cells: Escherichia coli BL21-CodonPlus(DE3)-RIL
Text: (§5) With the potent diselenide compound 14b in hand, we further studied the binding properties of this potent MNK inhibitor, which is to our knowledge the strongest MNK inhibitor reported to date. Diselenide 14b inhibited MNK activity in a dose dependent manner (Fig. 2A). […] Additionally, we tested if diselenide 14b influenced the GNE activity of the bifunctional GNE/MNK. […] To evaluate the specificity of the inhibitor towards other sugar kinases, we performed further inhibition studies using human GlcNAc kinase (GNK) and hexokinase (HK) from yeast (details in ESI ^†).
as §1, §2
Evaluation MNK activity in presence of the compounds 11, 12, 14b, 16b and 18b The effects of compounds 11, 12, 14b, 16b, or 18b on MNK enzyme activity were evaluated using a coupled optical assay. […]

[4] = target: hexokinase (HK) from yeast; assay: Hexokinase inhibition, coupled optical assay; assay type: biochemical; settings: glucose substrate
Text: as §5, §3
as §4, with “Samples were incubated at 37°C. Spectrophotometric measurements of NADH concentration was performed at 340 nm. Results obtained were normalized to blanks, consisting of 55 µl reaction mixture, 10 µl H 2O and 35 µl buffer B without MNK.” left out

T2 sequence (Q9UJ70 whole entry): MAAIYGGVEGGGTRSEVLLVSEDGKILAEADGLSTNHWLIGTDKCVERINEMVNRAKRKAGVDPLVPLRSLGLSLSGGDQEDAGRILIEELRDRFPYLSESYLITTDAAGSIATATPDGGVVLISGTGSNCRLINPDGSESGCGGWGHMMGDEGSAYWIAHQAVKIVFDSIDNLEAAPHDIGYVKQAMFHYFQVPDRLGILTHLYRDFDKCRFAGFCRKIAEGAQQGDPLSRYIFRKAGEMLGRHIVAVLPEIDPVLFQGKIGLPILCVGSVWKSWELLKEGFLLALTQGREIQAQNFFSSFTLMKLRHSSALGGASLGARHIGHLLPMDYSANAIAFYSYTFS

CC(=O)N[C@@H]1C(O)O[C@H](C[Se][Se]C[C@H]2OC(O)[C@@H](NC(C)=O)[C@@H](O)[C@@H]2O)[C@@H](O)[C@@H]1O (stereo partly shown) [Compound 14b]
mode of inhibition towards ManNAc ([1]; 14b 25 μM, different concentrations of ManNAc): competitive inhibition
Ki ([1]; 14b 25 μM, different concentrations of ManNAc, Lineweaver-Burk plot, read-out: inhibitor constant (Ki)): 15.7 µM
IC50 ([1]; purified human MNK, ManNAc 125 μM, ATP, means ± SEM, read-out: IC50 for MNK inhibition): 8.5 µM
species detected by 77Se NMR ([2]; 60 mM in aqueous saturated DTT solution, between 15 min and 5 h): only signals from the diselenide were detected
species detected by 77Se NMR ([2]; 60 mM in saturated GSH solution): only diselenide 14b was detected
IC50 [3]: ~1700 µM and 1700 µM
IC50 [4]: > 5000 µM
